The results in this text go back to US20260000496A1, “MATERIALS AND METHODS FOR DRUG-INDUCED GINGIVAL OVERGROWTH” (Optimed Technology, Inc., priority 2019, published 2026).

This assay has as its system drug-induced gingival overgrowth (DIGO). Description: Mice study #2: preventive and active treatment of DIGO, gingival overgrowth. It is filed as in vivo, C57BL/6 mice. Here is the method:
Using the C57BL/6, the DIGO were induced in 33 male mice for 14 days in an anaesthetized condition as described above. […] In the prevention group, folic acid (10 μg/ml) was included in the drinking water from the time of ligature placement until end of the study (14 days). […] In the combined prevention and treatment group, both modes of folic acid treatments had provided including PO and local gel application as described above. Mice study #2: Validation study for preventive and active treatment for DIGO. […] One set of these mice were used as a control disease group (FIG. 23A) while the other group was treated with folic acid (gel and in drinking water) (FIG. 23B). In the prevention and treatment group, folic acid (10 μg/ml) (Sigma-Aldrich, St. Louis MO) was included in the drinking water from the time of suture placement until end of the study (14 days). Additionally, gel applications were repeated daily until the end of the study (14 days). The four groups in this study were: • 1. Control group (n=2): no interventions were performed • 2. […] 2D planimetry with stereomicroscopy. […] 3D Digital Imaging and Volumetric Analysis. A 3Shape TRIOS® intraoral digital scanner was used to scan all of the dissected tissue and create a 3D STL (STereoLithography) file from each scan. Autodesk […]® (Autodesk 23 Inc., CA, USA) was used to overlay each individual scan on top of one another, keeping each of the distinct mice studies separately. Anatomical landmarks of the mandibular incisors, interdental papilla, and molars were used to make sure scans were accurately overlaid. Autodesk […]® was then used to selectively remove the mandibular incisors from each digital scan. The scans were all saved and imported into Autodesk Netfabb® (Autodesk Inc., CA, USA) where plane cuts were used to simultaneously crop all scans to include only the essential parts of the gingival tissue that would indicate an increase or decrease in growth. The cropped scans were saved and imported into open source software platform 3DSlicer 4.8, where they were volumetrically analyzed using the “Volumes” module. The quantified volume values were statistically analyzed in GraphPad Prism® 7 (GraphPad Software Inc., CA, USA).

Structures are written as SMILES.

As for `Nc1nc2ncc(CNc3ccc(C(=O)N[C@@H](CCC(=O)O)C(=O)O)cc3)nc2c(=O)[nH]1` [folic acid], the “gingival overgrowth, 2D planimetry with stereomicroscopy” value was “even further reduce these gingival overgrowths” (active treatment after 1 week of disease) and “all mice appear to respond” (preventive treatment). Besides, the “gingival overgrowth, clinical images” value is listed as “effectively reduce gingival overgrowths” (active treatment: DIGO 1 week, sutures removed and cyclosporine stopped, then folic acid p.o. & local); “prominently reduced gingival overgrowth” (preventive treatment, folic acid p.o. & local, 14 days). Besides, where the note is “folic acid group, day 14, n=5, disease group 23.17±1.134 mm^3, p<0.005”, the “mean gingival volume, 3D morphometric analysis” value is given as approximately 16.19±0.9224 mm^3. In addition, under “representative samples, day 14, some increase on lingual surfaces”, the “overlaid 3D volumes, control vs folic acid treated” value is listed as “little difference”.
